According to PMC5905968, “Evaluation of the fusion inhibitor P3 peptide as a potential microbicide to prevent HIV transmission in women” (PLoS ONE, 2018):

Key:
[1] = test system: vaginal epithelium of BALB/c mice; assay: BALB/c mice vaginal irritation test with histological score; type: in vivo; set-up: key to Epithelial lesion / Inflammatory infiltrate / Vascular congestion / Edema/fibrosis / Total Score: 0 (no change) when no injury or the observed changes were within normal range; 1 (minimum) when changes were sparse but exceeded those considered normal; 2 (light) when injuries were identifiable but with no severity; 3 (moderate) for significant injury that could increase in severity; 4 (very serious) for very serious injuries that occupy most of the analyzed tissue; details: for Edema/fibrosis / Epithelial lesion / Inflammatory infiltrate / Vascular congestion / Total Score: 3% N9 intravaginally, 7 days (irritation control); for Total Score: sum of the four lesion scores
Description: Female BALB/c mice (6–8 weeks-old) (Charles River Laboratories, Wilmington, MA) were pretreated subcutaneously with 2mg of medroxyprogesterone acetate (Depo-Provera; Pfizer, NY, USA) in PBS (Lonza, Verviers, Belgium). After five days, 30μl of test formulation with different doses of P3 diluted in PBS was applied intravaginally daily for 7 days by vaginal gavage to animals previously anesthetized with isoflurane (Forane, Abbott, Madrid). Controls included mice that received PBS (placebo group) and 3% nonoxynol-9 (N9) in PBS (irritation control group). On the eighth day, mice were sacrificed and genital tract tissue were extracted and fixed in 4% paraformaldehyde for histological analysis. The animals were distributed in groups of three mice each: group placebo only treated with PBS (1–3), group A treated with dose of 0.06mg/day ([…]) of P3 in PBS (4–6), group B treated with dose of 0.2mg/day (1522.7 μM) of P3 in PBS (7–9), group C treated with dose of 0.4mg/day (3045.3 μM) of P3 in PBS (10–12) and group irritation control treated with 3% N9 in PBS (13–15).
The presence of histological lesions in the mouse vaginas was evaluated with hematoxylin-eosin staining. Samples were embedded in paraffin by submersion in increasing concentrations of ethanol in water (Rectapur, VWR, England), two baths of xylene (Analar (VWR, England) and another of paraffin, before being placed in a paraffin mold. Subsequently, they were cut using a semimotorized microtome (RM2145 Leica, Germany) and processed for staining. For dewaxing, samples were submersed into two baths of xylene solution (10 min) and three baths in descending order of ethanol (100%, 90% and 70%) (5 min), before being stained with hematoxylin (Merck, Germany) for 5 min and eosin (Merck, Germany) for another 5 min. Post-eosin staining dehydration was performed with passages in increasing concentrations of ethanol (70%, 90% and 100%) and a bath of xylene solution. Finally, they were mounted with D.P.X. (Prolabo, VWR, Spain).
The existence of injury in vaginal epithelium, inflammatory infiltrate, vascular congestion and/or edema in the submucosa was evaluated in each biological sample. The values (score) assigned for each of these lesions were: 0 (no change) when no injury or the observed changes were within normal range; 1 (minimum) when changes were sparse but exceeded those considered normal; 2 (light) when injuries were identifiable but with no severity; 3 (moderate) for significant injury that could increase in severity; 4 (very serious) for very serious injuries that occupy most of the analyzed tissue. These values were added up and determined the level of vaginal irritation as minimum 1–4, average 5–8, moderate 9–11 and severe 12–16 [34].

[2] = at temperatures higher than 40 °C; cited from earlier work
Description: Microbicides must be stable at 37°C for a long period of time since it is the body temperature, and at 65 °C since some manufacturing processes may require high temperatures. Stability at room temperature or at 4 °C is also important since the storage at these temperatures is easier for the user and more affordable than at -20 °C. No statistically significance differences were observed on the anti-HIV-1 activity of P3 peptide stored at 25, 37 and 65 °C for a period of a week. The stability of P3 under different temperatures is much better than other peptide-based microbicide candidates or d ...

Compound | level of irritation of the vaginal wall ([1]; 3% N9 in PBS daily for 7 days, three samples) | Edema/fibrosis ([1]; mouse 13) | Epithelial lesion ([1]; mouse 13) | Inflammatory infiltrate ([1]; mouse 13) | Vascular congestion ([1]; mouse 13) | Total Score ([1]; mouse 13) | Edema/fibrosis ([1]; mouse 14) | Epithelial lesion ([1]; mouse 14) | Inflammatory infiltrate ([1]; mouse 14) | Vascular congestion ([1]; mouse 14) | Total Score ([1]; mouse 14) | Edema/fibrosis ([1]; mouse 15) | Epithelial lesion ([1]; mouse 15) | Inflammatory infiltrate ([1]; mouse 15) | Vascular congestion ([1]; mouse 15) | Total Score ([1]; mouse 15) | thermal stability [2]
CCCCCCCCCc1ccc(OCCOCCOCCOCCOCCOCCOCCOCCOCCO)cc1 [N9, nonoxynol-9, reference compound] | average (average 5–8) | 0 | 3 | 3 | 2 | 8 | 0 | 2 | 3 | 2 | 7 | 0 | 3 | 3 | 2 | 8 | 
Spantide II |  |  |  |  |  |  |  |  |  |  |  |  |  |  |  |  | not stable
